Values quoted from earlier work as cited in WO2006030898A1, “Aldose reductase inhibitor” (Suntory Ltd, priority 2004, dated 2006).

Biological target: aldose reductase (Homo sapiens, UniProt P15121)
Conditions: flavonoid glycosides; no own test described

O=c1c(O[C@@H]2O[C@H](CO)[C@@H](O)[C@H](O)[C@H]2O)c(-c2ccc(O)c(O)c2)oc2cc(O)cc(O)c12 [isoquercitrin]
aldose reductase inhibitory action (in words): have an aldose reductase inhibitory action
